Assay results from patent US7842488B2, “Polynucleotides encoding a human 3-phosphoinositide- dependent protein kinase” (Medical Research Council, priority 1997, dated 2010).
Blank lines part the entries; values can stand above or below the molecule they belong to.

Tests used:
PDK1 [1] = experiment: PDK1 assay: activation of GST-PKBα by purified PDK1 with phospholipid vesicles; assay type: biochemical, rabbit; settings: for fold-activation of GST-PKBα (PDK1 activity) / activation of PDK1 (in words): lipid 10 μM in vesicles of 100 μM PtdCho, 100 μM PtdSer, 30 min at 30° C.; for order of level of activation of the 3-phosphoinositide-dependent kinase (most effective first): rabbit skeletal muscle PDK1, FIG. 6; for activation and phosphorylation of GST-PKBα by PDK1 in the presence of Triton X-100: 0.5% (by vol) in the assay
Procedure: (§1) Assay of PDK1. The assay was carried out in two stages; in the first, GST-PKBα was incubated with PDK1 in the presence of MgATP and phospholipid vesicles to permit activation of GST-PKBα.
(§2) After 10 min at 30° C., the reactions were terminated by spotting the reaction mixture on to p81 phosphocellulose paper. The papers were washed in phosphoric acid and analysed as described previously. […] The basal GST-PKBα activity is the activity measured in the absence of PDK1.

PDK1 [2] = experiment: Phosphorylation of GST-PKBα by PDK1 with [γ32P]ATP; assay type: biochemical, rabbit; settings: lipid 10 μM in PtdCho/PtdSer vesicles
Procedure: Solutions were stored at 4° C. at concentrations 10-fold higher than those required in the assay and used within 2-4 days.
(§3) Phosphorylation of GST-PKB ? by PDK1. The incubations were identical to the Stage 1 described above except that [γ^32P] ATP (200-400 cpm/pmol) was used instead of unlabelled ATP. The reactions were terminated by making the solution 1% (by mass) in SDS. […] The Coomassie blue-staining bands corresponding to GST-PKBα were excised and the ^32P-radioactivity associated with each band was quantified.

GST-PKBα = molecular target: T1, GST-PKBα (Homo sapiens, UniProt P31749); experiment: Activity of PDK1 preparations towards GST-PKBα; assay type: biochemical; settings: for phosphorylation of GST-PKBα: PtdIns(3,4,5)P3 lipids, high enzyme concentration; for specific activity towards GST-PKBα: in the presence of PtdIns(3,4,5)P3; for fold increase in GST-PKBα activity: in the presence of PtdIns(3,4,5)P3 vesicles
T1 construct: generate a full length cDNA encoding the PKBα gene; made in house; host or cells: human embryonic kidney 293 cells (pEBG2T), serum starved
T1 sequence (P31749 whole entry): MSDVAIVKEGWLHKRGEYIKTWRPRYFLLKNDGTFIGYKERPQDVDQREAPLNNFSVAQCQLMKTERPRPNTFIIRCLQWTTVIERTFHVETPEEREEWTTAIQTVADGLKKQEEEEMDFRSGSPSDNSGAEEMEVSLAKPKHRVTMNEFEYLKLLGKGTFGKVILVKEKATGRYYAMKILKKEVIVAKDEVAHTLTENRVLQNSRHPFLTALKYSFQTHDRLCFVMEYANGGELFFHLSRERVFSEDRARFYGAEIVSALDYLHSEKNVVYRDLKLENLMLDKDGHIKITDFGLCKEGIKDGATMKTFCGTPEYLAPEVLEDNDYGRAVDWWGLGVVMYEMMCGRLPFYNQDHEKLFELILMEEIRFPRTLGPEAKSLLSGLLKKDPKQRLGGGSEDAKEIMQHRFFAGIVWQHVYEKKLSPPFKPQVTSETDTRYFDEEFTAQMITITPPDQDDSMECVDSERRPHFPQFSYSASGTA
Procedure: as §1, §2, §3

Molecule: CCCCC/C=C\C/C=C\C/C=C\C/C=C\CCCC(=O)OC(COC(=O)CCCCCCCCCCCCCCCCC)COP(=O)(O)OC1C(O)C(OP(=O)(O)O)C(OP(=O)(O)O)C(OP(=O)(O)O)C1O (single isomer, unassigned) [Lipid 4, L-enantiomer of sn-2-arachidonyl-3-stearoyl PtdIns(3,4,5)P3]
- activation of PDK1 (in words) (PDK1 [1]): no significant activation
- fold-activation of GST-PKBα (PDK1 activity) (PDK1 [1]; 3-stearoyl L-PtdIns(3,4,5)P3): 2.3 fold
- activation of PDK1 (in words) (PDK1 [1]; listed as L-enantiomer of sn-2-arachidonyl-3-stearoyl PtdIns(3,4,5)P3): almost ineffective

Molecule: O=P(O)(O)O[C@H]1[C@H](O)[C@@H](OP(=O)(O)O)[C@H](OP(=O)(O)O)[C@@H](OP(=O)(O)O)[C@H]1O [IP4, inositol 1,3,4,5-tetrakisphosphate]
- activation of PDK1 (in words) (PDK1 [1]): no significant activation
- activation of PDK1 (in words) (PDK1 [1]; listed as Ins(1,3,4,5)P4): did not activate PDK1
- activation of PDK1 (in words) (PDK1 [1]; listed as inositol 1,3,4,5-tetrakisphosphate): did not activate PDK1 at all
- phosphorylation of GST-PKBα by PDK1 (in words) (PDK1 [2]): did not activate PDK1 or induce the phosphorylation

Molecule: Triton X-100
- activation and phosphorylation of GST-PKBα by PDK1 in the presence of Triton X-100 (PDK1 [1]; listed as Triton X100): completely inhibits
- activation and phosphorylation of GST-PKBα by PDK1 in the presence of Triton X-100 (PDK1 [1]; listed as Triton-X100): prevented

Molecule: protein tyrosine phosphatase 1B: protein tyrosine phosphatase 1B
- PDK1 activity after treatment with phosphatase (PDK1 [1]; high concentrations of phosphatase): no effect on activity

B3: GST-D223A-PDK1: catalytically inactive GST-PDK1 mutant in which Asp223 was changed to Ala (protein, UniProt O15530 1-556, looked up, variant D223A)
3-phosphoinositide-dependent …: MARTTSQLYDAVPIQSSVVLCSCPSPSMVRTQTESSTPPGIPGGSRQGPAMDGTAAEPRPGAGSLQHAQPPPQPRKKRPEDFKFGKILGEGSFSTVVLARELATSREYAIKILEKRHIIKENKVPYVTRERDVMSRLDHPFFVKLYFTFQDDEKLYFGLSYAKNGELLKYIRKIGSFDETCTRFYTAEIVSALEYLHGKGIIHRDLKPENILLNEDMHIQITAFGTAKVLSPESKQARANSFVGTAQYVSPELLTEKSACKSSDLWALGCIIYQLVAGLPPFRAGNEYLIFQKIIKLEYDFPEKFFPKARDLVEKLLVLDATKRLGCEEMEGYGPLKAHPFFESVTWENLHQQTPPKLTAYLPAMSEDDEDCYGNYDNLLSQFGCMQVSSSSSSHSLSASDTGLPQRSGSNIEQYIHDLDSNSFELDLQFSEDEKRLLLEKQAGGNPWHQFVENNLILKMGPVDKRKGLFARRRQLLLTEGPHLYYVDPVNKVLKGEIPWSQELRPEAKNFKTFFVHTPNRTYYLMDPSGNAHKWCRKIQEVWRQRYQSHPDAAVQ
modifications: GST fusion tag
- phosphorylation and activation of GST-PKBα (in words) (GST-PKBα; PtdCho/PtdSer lipid vesicles containing PtdIns(3,4,5)P3): did not phosphorylate or active GST-PKBα

Second part, led by results:

- order of level of activation of the 3-phosphoinositide-dependent kinase (most effective first) (PDK1 [1]): 1
Molecule: CCCCC/C=C\C/C=C\CCCCCCCC(=O)OCC(COP(=O)(O)OC1C(O)C(OP(=O)(O)O)C(OP(=O)(O)O)C(OP(=O)(O)O)C1O)OC(=O)CCCCCCC/C=C\C/C=C\CCCCC (racemic) [Lipid 5, Racemic sn-1,2-dilinoleoyl PtdIns(3,4,5)P3]
- fold-activation of GST-PKBα (PDK1 activity) (PDK1 [1]): 36 fold

- order of level of activation of the 3-phosphoinositide-dependent kinase (most effective first) (PDK1 [1]): 2
Molecule: CCCCC/C=C\C/C=C\C/C=C\C/C=C\CCCC(=O)OC(COC(=O)CCCCCCCCCCCCCCCCC)COP(=O)(O)OC1C(O)C(OP(=O)(O)O)C(OP(=O)(O)O)C(OP(=O)(O)O)C1O (single isomer, unassigned) [Lipid 3, D-enantiomer of sn-2-arachidonyl-3-stearoyl PtdIns(3,4,5)P3]
- fold-activation of GST-PKBα (PDK1 activity) (PDK1 [1]; 3-stearoyl D-PtdIns(3,4,5)P3): 16 fold
- activation of PDK1 (in words) (PDK1 [1]; listed as D-enantiomer of sn-2-arachidonyl-3-stearoyl PtdIns(3,4,5)P3): potently activated PDK1

- order of level of activation of the 3-phosphoinositide-dependent kinase (most effective first) (PDK1 [1]): 4
Molecule: CCCCCCCCCCCCCCCC(=O)OCC(COP(=O)(O)OC1C(O)C(OP(=O)(O)O)C(OP(=O)(O)O)C(OP(=O)(O)O)C1O)OC(=O)CCCCCCCCCCCCCCC (stereo not drawn) [Lipid 6, sn-1,2 di-palmitoyl PtdIns(3,4,5)P3]
- fold less effective in activating PDK1 than the sn-1-stearoyl-2-arachidonyl and sn-2-arachidonyl-3-stearoyl derivatives (PDK1 [1]): ~3 fold
- fold-activation of GST-PKBα (PDK1 activity) (PDK1 [1]): about 6 fold
- fold-activation of GST-PKBα (PDK1 activity) (PDK1 [1]; listed as sn-1,2-dipalmitoyl D-PtdIns(3,4,5)P3): 5.5 fold

- phosphorylation of GST-PKBα (GST-PKBα): 0.75 mol phosphate per mol protein
- fold increase in GST-PKBα activity (GST-PKBα): 35 fold
Molecule: GST-PDK1: residues 52-556 of human PDK1 expressed in 293 cells as fusion with glutathione S-transferase
- specific activity towards GST-PKBα (GST-PKBα): 78 000 U/mg

- fold reduction of the rate of activation of GST-PKBα compared to full length wild-type GST-PDK1 (GST-PKBα; PtdIns(3,4,5)P3 present): about 30 fold
B1: GST-ΔPH-PDK1: PDK1 mutant lacking the putative C-terminal PH domain, residues 1-450, GST fusion (protein, UniProt O15530 1-450, looked up, fragment)
chain: MARTTSQLYDAVPIQSSVVLCSCPSPSMVRTQTESSTPPGIPGGSRQGPAMDGTAAEPRPGAGSLQHAQPPPQPRKKRPEDFKFGKILGEGSFSTVVLARELATSREYAIKILEKRHIIKENKVPYVTRERDVMSRLDHPFFVKLYFTFQDDEKLYFGLSYAKNGELLKYIRKIGSFDETCTRFYTAEIVSALEYLHGKGIIHRDLKPENILLNEDMHIQITDFGTAKVLSPESKQARANSFVGTAQYVSPELLTEKSACKSSDLWALGCIIYQLVAGLPPFRAGNEYLIFQKIIKLEYDFPEKFFPKARDLVEKLLVLDATKRLGCEEMEGYGPLKAHPFFESVTWENLHQQTPPKLTAYLPAMSEDDEDCYGNYDNLLSQFGCMQVSSSSSSHSLSASDTGLPQRSGSNIEQYIHDLDSNSFELDLQFSEDEKRLLLEKQAGGNPWHQ
modifications: GST fusion tag
notes: PDK1 mutant lacking the putative C-terminal PH domain, residues 1-450, GST fusion

- phosphorylation of GST-PKBα (GST-PKBα): 0.75 mol phosphate per mol protein
- fold increase in GST-PKBα activity (GST-PKBα): 35 fold
B2: GST-DSTPK61: residues 1-752 of Drosophila DSTPK61 expressed in E. coli as GST fusion (protein)
chain: MKCKSWSNKINNYVVRKIKSIKINGTQQQLQLPGSGASGIAAAAVITVASDCGENCSSNGTEHQQHFNIATTTATSATEATMPAMAKEKASATVSLGESNFRDINLKDLAVVVEAASRLHHQQNVCGCGAVSSTENNNNSRYGSSKYLTNGHTSPLAAAVASNSSSVATTPHCRMLHNCSLQQYQNDIRQQTEILDMLRQQHQQGYQSQQQQQQPQQQQEQQQQQEQSQQQQQLQNPAPRRSPNDFIFGRYIGEGSYSIVYLAVDIHSRREYAIKVCEKRLILRERKQDYIKREREVMHQMTNVPGFVNLSCTFQDQRSLYFVMTYARKGDMLPYINRVGSFDVACTRHYAAELLLACEHMHRRNVVHRDLKPENILLDEDMHTLIADFGSAKVMTAHERALATEHCSEQRRSNSDEDDEDSDRLENEDEDFYDRDSEELDDGDDEQQQEEMDSPRHRQRRYNRHRKASFVGTAQYVSPEVLQNGPITPAADLWALGCIVYQMIAGLPPFRGSNDYVIFKEILDCAVDFPQGFDKDAEDLVRKLLRVDPRDRLGAQDEFGYYESIRAHPFFAGIDWQTLRQQTPPPIYPYLPGVSQDEDFRSSYTVPGDLEPGLDERQISRLLSAELGVGSSVAMPVKRSTAKNSFDLNDAEKLQRLEQQKTDKWHVFADGEVILKKGFVNKRKGLFARKRMLLLTTGPRLIYIDPVQMIKKGEIPWSPDLRAEYKNFKIFFVHTPNRTYYLDDPEGYAIHW
modifications: left off: a dimerising Fc or GST
notes: residues 1-752 of Drosophila DSTPK61 expressed in E. coli as GST fusion
- specific activity towards GST-PKBα (GST-PKBα): 280 U/mg
